According to the supplement of paper PMC10307832:

Columns and labels:
Test in all cases: relative viability (nuclei count vs DMSO), 5 days (fraction); higher = more cells survive
Halofuginone + OSI-027 = compound: O=C(C[C@H]1NCCC[C@@H]1O)Cn1cnc2cc(Br)c(Cl)cc2c1=O (racemic) [Halofuginone] + COc1cccc2cc(-c3nc([C@H]4CC[C@H](C(=O)O)CC4)n4ncnc(N)c34)[nH]c12 [OSI-027] (partner 0.5 µM)
In short: (§1)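 Values are medians from duplicate plates. Each reflects relative viability, defined as the nuclei count of treated wells over that of vehicle wells. Lung cancer cell lines in 1536-well plates were pin-tool dosed one day after seeding with one drug alone or with a fixed anchor-drug dose plus five library-drug doses (not always all listed) in √10 steps, then fixed, stained and imaged at 4× after 5 days.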

[1] = compound: O=C(C[C@H]1NCCC[C@@H]1O)Cn1cnc2cc(Br)c(Cl)cc2c1=O (racemic) [Halofuginone] + CS(=O)(=O)N1CCN(Cc2cc3nc(-c4cccc5[nH]ncc45)nc(N4CCOCC4)c3s2)CC1 [Pictilisib] (partner 1 µM)
In short: as §1

[2] = compound: O=C(C[C@H]1NCCC[C@@H]1O)Cn1cnc2cc(Br)c(Cl)cc2c1=O (racemic) [Halofuginone] + O=C(CCCCCCC(=O)Nc1ccccc1)NO [Vorinostat] (partner 1 µM)
In short: as §1

Decitabine + Tozasertib = compound: Nc1ncn([C@H]2C[C@H](O)[C@@H](CO)O2)c(=O)n1 [Decitabine] + Cc1cc(Nc2cc(N3CCN(C)CC3)nc(Sc3ccc(NC(=O)C4CC4)cc3)n2)n[nH]1 [Tozasertib] (partner 0.1 µM)
In short: as §1

| Cell Line | relative viability (Halofuginone + OSI-027; first compound 0.001 µM) | relative viability (Halofuginone + OSI-027; first compound 0.003162 µM) | relative viability (Halofuginone + OSI-027; first compound 0.01 µM) | relative viability (Halofuginone + OSI-027; first compound 0.03162 µM) | relative viability (Halofuginone + OSI-027; first compound 0.1 µM) | relative viability ([1]; first compound 0.001 µM) | relative viability ([1]; first compound 0.003162 µM) | relative viability ([1]; first compound 0.01 µM) | relative viability ([1]; first compound 0.03162 µM) | relative viability ([1]; first compound 0.1 µM) | relative viability ([2]; first compound 0.001 µM) | relative viability ([2]; first compound 0.003162 µM) | relative viability ([2]; first compound 0.01 µM) | relative viability ([2]; first compound 0.03162 µM) | relative viability ([2]; first compound 0.1 µM) | relative viability (Decitabine + Tozasertib; first compound 0.04 µM) | relative viability (Decitabine + Tozasertib; first compound 0.1265 µM) | relative viability (Decitabine + Tozasertib; first compound 0.4 µM) | relative viability (Decitabine + Tozasertib; first compound 1.265 µM) | relative viability (Decitabine + Tozasertib; first compound 4 µM) |
| --- | --- | --- | --- | --- | --- | --- | --- | --- | --- | --- | --- | --- | --- | --- | --- | --- | --- | --- | --- | --- |
| NCI-H2347 | 0.577 | 0.336 | 0.454 | 0.425 | 0.344 | 0.759 | 0.636 | 0.445 | 0.699 | 0.374 | 0.769 | 0.561 | 0.55 | 0.611 | 0.395 | 0.415 | 0.486 | 0.493 | 0.358 | 0.347 |
| NCI-H2405 | 0.71 | 0.656 | 0.638 | 0.619 | 0.577 | 0.522 | 0.504 | 0.512 | 0.478 | 0.421 | 1.07 | 1.06 | 1.02 | 0.958 | 0.577 | 0.521 | 0.598 | 0.526 | 0.388 | 0.337 |
| NCI-H3122 | 0.894 | 1.05 | 0.867 | 0.943 | 0.384 | 0.58 | 0.581 | 0.538 | 0.67 | 0.494 | 0.924 | 1.13 | 0.938 | 1.01 | 1.06 | 0.328 | 0.369 | 0.118 |  | 0.246 |
| PC-3 [JPC-3] | 0.798 | 0.804 | 0.75 | 0.76 | 0.736 | 0.703 | 0.78 | 0.699 | 0.772 | 0.769 | 0.84 | 0.769 | 0.693 | 0.929 | 0.683 | 0.593 | 0.59 | 0.459 | 0.448 | 0.404 |
| PC-14 | 0.828 | 0.962 | 0.704 | 0.471 | 0.0328 | 0.573 | 0.635 | 0.5 | 0.262 | 0.037 | 0.803 | 0.626 | 0.646 | 0.292 | 0.0442 | 0.25 | 0.182 | 0.0787 | 0.0922 | 0.0951 |
| RERF-LC-KJ | 0.618 | 0.609 | 0.537 | 0.565 | 0.488 | 0.568 | 0.601 | 0.543 | 0.531 | 0.433 | 0.8 | 0.675 | 0.605 | 0.718 | 0.604 | 0.511 | 0.446 |  | 0.309 | 0.379 |
| SK-LU-1 | 0.388 | 0.399 | 0.406 | 0.341 | 0.276 | 0.766 | 0.633 | 0.557 | 0.493 | 0.415 | 0.835 | 0.818 | 0.839 | 0.787 | 0.368 | 0.283 | 0.288 | 0.214 | 0.238 | 0.24 |
| SK-MES-1 | 0.679 | 0.666 | 0.557 | 0.498 | 0.152 | 0.366 | 0.358 | 0.362 | 0.211 | 0.145 | 1.16 | 1.09 | 0.997 | 0.949 | 0.183 | 0.698 | 0.608 | 0.332 | 0.238 | 0.255 |
| SW 1573 | 0.919 | 0.85 | 0.571 | 0.509 | 0.143 | 0.451 | 0.532 | 0.435 | 0.34 | 0.18 | 1.27 |  | 0.775 | 0.601 | 0.167 | 0.165 | 0.167 | 0.172 | 0.124 | 0.108 |
